Values after ≈ are worked out from the molar mass of the structure shown.
The compounds below were run on Mycobacterium tuberculosis H37Rv (assay: Alamar blue (MABA) test, MIC on Mycobacterium tuberculosis H37Rv). Settings: H37RV, read-out: MIC (μM) MTb H37Rv.
Format: cell-based

Row | SMILES | MIC
1 | CON=C1C[C@@H](C)O[C@@H](O[C@@H]2[C@@H](C)[C@H](O[C@H]3C[C@@H](C)N(C)C[C@H](C)O3)[C@@H](C)C(=O)O[C@H](C(C)CO[C@@H]3O[C@H](C)[C@@H](O)[C@@H](OC)[C@H]3OC)[C@H](C)[C@@H](OC(=O)CC(C)C)[C@@H](C)C(=O)[C@@](C)(OC(=O)N(C)C)C[C@@H]2C)[C@@H]1O (stereo partly drawn) [Compound 3, (2R,3S,4R,5R,7S,9S,10S,11R,12S,13R)-7-[(dimethylcarbamoyl)oxy]-2-(1-{[(2R,3R,4R,5R,6R)-5-hydroxy-3,4-dimethoxy-6-methyltetrahydro-2H-pyran-2-yl]oxy}propan-2-yl)-10-{[(2S,3R,6R)-3-hydroxy-4-(methoxyimino)-6-methyltetrahydro-2H-pyran-2-yl]oxy}-3,5,7,9,11,13-hexamethyl-6,14-dioxo-12-{[(2S,5R,7R)-2,4,5-trimethyl-1,4-oxazepan-7-yl]oxy}oxacyclotetradecan-4-yl 3-methylbutanoate] | 1.27 µM (≈ 1.35 µg/mL)

Same assay, conditions: minimum inhibitory concentration, Alamar blue, strain H37Rv, read-out: MIC (μM) MTb H37Rv

Row | SMILES | MIC
2 | CON=C1C[C@@H](C)O[C@@H](O[C@@H]2[C@@H](C)[C@H](O[C@H]3C[C@@H](C)N(C)C[C@H](C)O3)[C@@H](C)C(=O)O[C@H](C(C)CO[C@@H]3O[C@H](C)[C@@H](O)[C@@H](OC)[C@H]3OC)[C@H](C)[C@@H](OC(=O)CC(C)C)[C@@H](C)C(=O)[C@@](C)(O)C[C@@H]2C)[C@@H]1O (single isomer, unassigned) [Compound 1-a] | 2.05 µM (≈ 2.03 µg/mL)
3 | CON=C1C[C@@H](C)O[C@@H](O[C@@H]2[C@@H](C)[C@H](O[C@H]3C[C@@H](C)N(C)C[C@H](C)O3)[C@@H](C)C(=O)O[C@H](C(C)CO[C@@H]3O[C@H](C)[C@@H](O)[C@@H](OC)[C@H]3OC)[C@H](C)[C@@H](OC(=O)CC(C)C)[C@@H](C)C(=O)[C@@](C)(OC(=O)NC(C)(C)CNS(=O)(=O)c3ccccc3[N+](=O)[O-])C[C@@H]2C)[C@@H]1O (single isomer, unassigned) [Compound 5-a] | 0.34 µM (≈ 0.438 µg/mL)
4 | CON=C1C[C@@H](C)O[C@@H](O[C@@H]2[C@@H](C)[C@H](O[C@H]3C[C@H](C)N(C)C[C@H](C)O3)[C@@H](C)C(=O)O[C@H](C(C)CO[C@@H]3O[C@H](C)[C@@H](O)[C@@H](OC)[C@H]3OC)[C@H](C)[C@@H](OC(=O)CC(C)C)[C@@H](C)C(=O)[C@@](C)(OC(=O)NC(C)(C)CNS(=O)(=O)c3ccccc3[N+](=O)[O-])C[C@@H]2C)[C@@H]1O (single isomer, unassigned) [Compound 5-b] | 0.53 µM (≈ 0.683 µg/mL)
5 | CON=C1C[C@@H](C)O[C@@H](O[C@@H]2[C@@H](C)[C@H](O[C@H]3C[C@@H](C)N(C)C[C@H](C)O3)[C@@H](C)C(=O)O[C@H](C(C)CO[C@@H]3O[C@H](C)[C@@H](O)[C@@H](OC)[C@H]3OC)[C@H](C)[C@@H](OC(=O)CC(C)C)[C@@H](C)C(=O)[C@@](C)(OC(=O)NCc3ccccc3)C[C@@H]2C)[C@@H]1O (single isomer, unassigned) [Compound 7-a] | 0.54 µM (≈ 0.606 µg/mL)
6 | CON=C1C[C@@H](C)O[C@@H](O[C@@H]2[C@@H](C)[C@H](O[C@H]3C[C@H](C)N(C)C[C@H](C)O3)[C@@H](C)C(=O)O[C@H](C(C)CO[C@@H]3O[C@H](C)[C@@H](O)[C@@H](OC)[C@H]3OC)[C@H](C)[C@@H](OC(=O)CC(C)C)[C@@H](C)C(=O)[C@@](C)(OC(=O)NCc3ccccc3)C[C@@H]2C)[C@@H]1O (single isomer, unassigned) [Compound 7-b] | 0.52 µM (≈ 0.584 µg/mL)
7 | CON=C1C[C@@H](C)O[C@@H](O[C@@H]2[C@@H](C)[C@H](O[C@H]3CC(C)N(C)C[C@H](C)O3)[C@@H](C)C(=O)O[C@H](C(C)CO[C@@H]3O[C@H](C)[C@@H](O)[C@@H](OC)[C@H]3OC)[C@H](C)[C@@H](OC(=O)CC(C)C)[C@@H](C)C(=O)[C@@](C)(OC(=O)NC(C)(C)CNS(=O)(=O)c3cn[nH]c3[N+](=O)[O-])C[C@@H]2C)[C@@H]1O (stereo partly shown) [Compound 4] | 0.21 µM (≈ 0.268 µg/mL)

Reference: patent publication US20150210729A1, “MACROLIDE DERIVATIVES, PREPARATION THEREOF AND THERAPEUTIC USE THEREOF” (priority 2012, published 2015)
